Assay results from the NIST ThermoML archive (doi:10.1016/j.jct.2011.02.008).
± gives the expanded uncertainty stated by the source.

Test: xn = mol fraction of the nth substance listed
Details: Liquid, Vibrating tube method

COC(=O)c1ccccc1 [methyl benzoate] + C1CCCCC1
mass density [kg/m3]
Details | x1 = 0.0985 | x1 = 0.1963 | x1 = 0.2939 | x1 = 0.3942 | x1 = 0.4955 | x1 = 0.596 | x1 = 0.6975 | x1 = 0.7993 | x1 = 0.8982
338.15 K, 45000 kPa | – | – | – | – | – | 961.4 ± 2.4 | 991.1 ± 2.4 | 1019.6 ± 2.4 | 1047.5 ± 2.4
338.15 K, 50000 kPa | 810.6 ± 2.4 | 841.5 ± 2.4 | 872.3 ± 2.4 | 903.1 ± 2.4 | 933.8 ± 2.4 | 964.7 ± 2.4 | 994.4 ± 2.4 | 1022.8 ± 2.4 | 1050.5 ± 2.4
338.15 K, 55000 kPa | 814.1 ± 2.4 | 844.9 ± 2.4 | 875.7 ± 2.4 | 906.4 ± 2.4 | 937.1 ± 2.4 | 967.9 ± 2.4 | 997.5 ± 2.4 | 1025.8 ± 2.4 | 1053.6 ± 2.4
338.15 K, 60000 kPa | 817.3 ± 2.5 | 848.1 ± 2.4 | 878.8 ± 2.4 | 909.7 ± 2.4 | 940.1 ± 2.4 | 971.1 ± 2.4 | 1000.4 ± 2.4 | 1028.6 ± 2.4 | 1056.3 ± 2.4
348.15 K, 100 kPa | 756.3 ± 2.4 | 788.1 ± 2.4 | 820 ± 2.4 | 852.1 ± 2.4 | 884.1 ± 2.4 | 916.3 ± 2.4 | 947.3 ± 2.4 | 976.9 ± 2.4 | 1005.9 ± 2.4
348.15 K, 1000 kPa | 757.4 ± 2.4 | 789.2 ± 2.4 | 820.9 ± 2.4 | 853 ± 2.4 | 885 ± 2.4 | 917.1 ± 2.4 | 948.1 ± 2.4 | 977.7 ± 2.4 | 1006.7 ± 2.4
348.15 K, 5000 kPa | 762.1 ± 2.4 | 793.8 ± 2.4 | 825.6 ± 2.4 | 857.4 ± 2.4 | 889.1 ± 2.4 | 921.1 ± 2.4 | 951.8 ± 2.4 | 981.3 ± 2.4 | 1010.1 ± 2.4
348.15 K, 10000 kPa | 767.9 ± 2.4 | 799.3 ± 2.4 | 830.9 ± 2.4 | 862.4 ± 2.4 | 894 ± 2.4 | 925.8 ± 2.4 | 956.3 ± 2.4 | 985.5 ± 2.4 | 1014.3 ± 2.4
348.15 K, 15000 kPa | 773.1 ± 2.4 | 804.4 ± 2.4 | 835.8 ± 2.4 | 867.2 ± 2.4 | 898.6 ± 2.4 | 930.2 ± 2.4 | 960.6 ± 2.4 | 989.7 ± 2.4 | 1018.2 ± 2.4
348.15 K, 20000 kPa | 778.1 ± 2.4 | 809.3 ± 2.4 | 840.5 ± 2.4 | 871.8 ± 2.4 | 903.1 ± 2.4 | 934.4 ± 2.4 | 964.7 ± 2.4 | 993.6 ± 2.4 | 1022 ± 2.4
348.15 K, 25000 kPa | 782.8 ± 2.4 | 813.9 ± 2.4 | 845 ± 2.4 | 876.1 ± 2.4 | 907.3 ± 2.4 | 938.5 ± 2.4 | 968.7 ± 2.4 | 997.5 ± 2.4 | 1025.7 ± 2.4
348.15 K, 30000 kPa | 787.2 ± 2.4 | 818.2 ± 2.4 | 849.3 ± 2.4 | 880.3 ± 2.4 | 911.3 ± 2.4 | 942.4 ± 2.4 | 972.5 ± 2.4 | 1001.1 ± 2.4 | 1029.3 ± 2.4
348.15 K, 35000 kPa | 791.5 ± 2.4 | 822.4 ± 2.4 | 853.4 ± 2.4 | 884.2 ± 2.4 | 915.2 ± 2.4 | 946.2 ± 2.4 | 976.1 ± 2.4 | 1004.7 ± 2.4 | 1032.7 ± 2.4
348.15 K, 40000 kPa | 795.5 ± 2.4 | 826.4 ± 2.4 | 857.3 ± 2.4 | 888.1 ± 2.4 | 918.9 ± 2.4 | 949.9 ± 2.4 | 979.7 ± 2.4 | 1008.2 ± 2.4 | 1036.1 ± 2.4
348.15 K, 45000 kPa | 799.5 ± 2.4 | 830.3 ± 2.4 | 861.1 ± 2.4 | 891.8 ± 2.4 | 922.6 ± 2.4 | 953.4 ± 2.4 | 983.2 ± 2.4 | 1011.5 ± 2.4 | 1039.4 ± 2.4
348.15 K, 50000 kPa | 803.2 ± 2.4 | 834 ± 2.4 | 864.7 ± 2.4 | 895.4 ± 2.4 | 926.1 ± 2.4 | 956.9 ± 2.4 | 986.5 ± 2.4 | 1014.8 ± 2.4 | 1042.5 ± 2.4
348.15 K, 55000 kPa | 806.8 ± 2.4 | 837.6 ± 2.4 | 868.3 ± 2.4 | 898.9 ± 2.4 | 929.5 ± 2.4 | 960.2 ± 2.4 | 989.8 ± 2.4 | 1018 ± 2.4 | 1045.7 ± 2.4
348.15 K, 60000 kPa | 810.1 ± 2.5 | 840.9 ± 2.4 | 871.4 ± 2.4 | 902.1 ± 2.4 | 932.6 ± 2.4 | 963.3 ± 2.4 | 992.7 ± 2.4 | 1020.9 ± 2.4 | 1048.5 ± 2.4
358.15 K, 100 kPa | 746 ± 2.4 | 778 ± 2.4 | 809.9 ± 2.4 | 842 ± 2.4 | 874.1 ± 2.4 | 906.3 ± 2.4 | 937.3 ± 2.4 | 967 ± 2.4 | 996.1 ± 2.4
358.15 K, 1000 kPa | 747.1 ± 2.4 | 779.1 ± 2.4 | 811 ± 2.4 | 843.1 ± 2.4 | 875.1 ± 2.4 | 907.3 ± 2.4 | 938.3 ± 2.4 | 967.9 ± 2.4 | 996.9 ± 2.4
358.15 K, 5000 kPa | 752.5 ± 2.4 | 784.2 ± 2.4 | 815.9 ± 2.4 | 847.7 ± 2.4 | 879.4 ± 2.4 | 911.4 ± 2.4 | 942 ± 2.4 | 971.7 ± 2.4 | 1000.6 ± 2.4
358.15 K, 10000 kPa | 757.8 ± 2.4 | 790 ± 2.4 | 821.5 ± 2.4 | 853.1 ± 2.4 | 884.7 ± 2.4 | 916.4 ± 2.4 | 947 ± 2.4 | 976.2 ± 2.4 | 1004.9 ± 2.4
358.15 K, 15000 kPa | 764.1 ± 2.4 | 795.5 ± 2.4 | 826.7 ± 2.4 | 858.2 ± 2.4 | 889.6 ± 2.4 | 921.1 ± 2.4 | 951.4 ± 2.4 | 980.6 ± 2.4 | 1009 ± 2.4
358.15 K, 20000 kPa | 769.4 ± 2.4 | 800.6 ± 2.4 | 831.8 ± 2.4 | 863 ± 2.4 | 894.2 ± 2.4 | 925.6 ± 2.4 | 955.8 ± 2.4 | 984.7 ± 2.4 | 1013 ± 2.4
358.15 K, 25000 kPa | 774.3 ± 2.4 | 805.5 ± 2.4 | 836.5 ± 2.4 | 867.6 ± 2.4 | 898.6 ± 2.4 | 929.9 ± 2.4 | 960 ± 2.4 | 988.7 ± 2.4 | 1016.9 ± 2.4
358.15 K, 30000 kPa | 779 ± 2.4 | 810 ± 2.4 | 841 ± 2.4 | 871.8 ± 2.4 | 902.9 ± 2.4 | 934 ± 2.4 | 963.9 ± 2.4 | 992.6 ± 2.4 | 1020.6 ± 2.4
358.15 K, 35000 kPa | 783.5 ± 2.4 | 814.4 ± 2.4 | 845.3 ± 2.4 | 876.1 ± 2.4 | 907 ± 2.4 | 938 ± 2.4 | 967.8 ± 2.4 | 996.3 ± 2.4 | 1024.2 ± 2.4
358.15 K, 40000 kPa | 787.7 ± 2.4 | 818.6 ± 2.4 | 849.4 ± 2.4 | 880.1 ± 2.4 | 910.9 ± 2.4 | 941.8 ± 2.4 | 971.5 ± 2.4 | 999.9 ± 2.4 | 1027.8 ± 2.4
358.15 K, 45000 kPa | 791.8 ± 2.4 | 822.6 ± 2.4 | 853.3 ± 2.4 | 884 ± 2.4 | 914.7 ± 2.4 | 945.5 ± 2.4 | 975.1 ± 2.4 | 1003.4 ± 2.4 | 1031.2 ± 2.4
358.15 K, 50000 kPa | 795.7 ± 2.4 | 826.5 ± 2.4 | 857.1 ± 2.4 | 887.8 ± 2.4 | 918.3 ± 2.4 | 949 ± 2.4 | 978.6 ± 2.4 | 1006.8 ± 2.4 | 1034.5 ± 2.4
358.15 K, 55000 kPa | 799.5 ± 2.5 | 830.2 ± 2.4 | 860.8 ± 2.4 | 891.4 ± 2.4 | 921.9 ± 2.4 | 952.5 ± 2.4 | 982 ± 2.4 | 1010.1 ± 2.4 | 1037.8 ± 2.4
358.15 K, 60000 kPa | 802.9 ± 2.5 | 832.8 ± 2.4 | 864.2 ± 2.4 | 894.6 ± 2.4 | 925.1 ± 2.4 | 955.7 ± 2.4 | 985 ± 2.4 | 1013.1 ± 2.4 | 1040.9 ± 2.4
